Target: IDH1 R132C (Homo sapiens (Human), UniProt O75874, R132C)
Assay: In vitro NADPH depletion assay for IDH1m R132C inhibitors
Assay type: biochemical
Conditions: enzyme, read-out: IDH R132C IC50
Protocol: A test compound is prepared as 10 mM stock in DMSO and diluted to 50× final concentration in DMSO, for a 50 μl reaction mixture. IDH enzyme activity converting alpha-ketoglutarate to 2-hydroxyglutaric acid is measured using a NADPH depletion assay. In the assay the remaining cofactor is measured at the end of the reaction with the addition of a catalytic excess of diaphorase and resazurin, to generate a fluorescent signal in proportion to the amount of NADPH remaining. […] The reaction is started with the addition of 10 μl of Substrate Mix ([…], 5 mM alpha-ketoglutarate, in Assay Buffer) and the mixture is incubated for 90 minutes at room temperature.
The concentration of NADPH and alpha-ketoglutarate in the Substrate Buffer is 20 μM and 1 mM, respectively.

IDH1 R132C, sequence (O75874 whole entry R132C): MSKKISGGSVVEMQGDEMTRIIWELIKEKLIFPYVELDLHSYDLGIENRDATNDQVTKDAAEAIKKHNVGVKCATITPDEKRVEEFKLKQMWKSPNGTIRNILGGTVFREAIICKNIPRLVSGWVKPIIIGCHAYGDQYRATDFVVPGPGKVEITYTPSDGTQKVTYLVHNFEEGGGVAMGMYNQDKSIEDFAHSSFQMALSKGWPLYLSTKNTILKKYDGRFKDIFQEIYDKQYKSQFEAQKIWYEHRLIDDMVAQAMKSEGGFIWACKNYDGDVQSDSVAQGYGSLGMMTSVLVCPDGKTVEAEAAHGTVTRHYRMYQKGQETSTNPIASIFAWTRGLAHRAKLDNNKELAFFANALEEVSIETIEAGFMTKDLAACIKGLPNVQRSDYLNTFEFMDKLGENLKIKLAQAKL

IC50: 100 to 500 nM
SMILES: O=C(NC1CC(F)(F)C1)[C@H](c1ccccc1Cl)N(C(=O)[C@@H]1CCC(=O)N1c1ccncn1)c1cccc(F)c1 [Compound 22]
